The compounds below were run against T1, Recombinant human CETP (Homo sapiens, UniProt P11597) (assay: CETP in vitro assay (fluorometric assay, Roar Biomedical; cholesterol ester transfer from HDL to LDL)). Settings: recombinant human CETP from CHO cells; 3 hours at 37° C.; fluorescence 485/535 nm; compound concentrations between 1 nM and 30 μM; read-out: IC50 values for inhibition of CETP.
T1 construct: made in house; host or cells: CHO cells (secreted into conditioned medium)
T1 sequence (P11597 18-493): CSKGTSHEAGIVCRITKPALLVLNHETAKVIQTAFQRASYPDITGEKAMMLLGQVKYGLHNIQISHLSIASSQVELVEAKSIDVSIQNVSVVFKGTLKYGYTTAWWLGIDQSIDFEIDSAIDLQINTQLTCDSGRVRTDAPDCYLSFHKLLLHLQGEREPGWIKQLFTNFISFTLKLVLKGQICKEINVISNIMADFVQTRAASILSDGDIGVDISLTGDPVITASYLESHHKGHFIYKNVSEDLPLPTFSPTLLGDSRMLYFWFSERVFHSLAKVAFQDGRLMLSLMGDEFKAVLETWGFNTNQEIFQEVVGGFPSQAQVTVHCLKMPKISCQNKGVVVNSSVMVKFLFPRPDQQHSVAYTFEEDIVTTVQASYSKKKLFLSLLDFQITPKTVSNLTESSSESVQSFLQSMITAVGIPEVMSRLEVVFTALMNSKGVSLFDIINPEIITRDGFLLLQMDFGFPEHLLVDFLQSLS
Format: biochemical
Description: CETP inhibitory activity of compounds of the present invention can be determined in a fluorometric assay purchased from Roar Biomedical, Inc. (New York, N.Y., USA). […] Recombinant human CETP was partially purified from medium conditioned by CETP expressing CHO cells. In a 384 well format 2.5 μl of compound solution in DMSO was combined with 2 μl of donor solution, 2 μl of acceptor solution and 0.8 μl of recombinant human CETP solution in a total volume of 100 μl with assay buffer and incubated for 3 hours at 37° C. The fluorescence intensity was measured at excitation wavelength of 485 nm and emission wavelength of 535 nm. IC50 values are calculated from dose effect curves from compound concentrations between 1 nM and 30 μM.
CC(C)c1nc2c(c3c1[C@@H](c1ccc(C(F)(F)F)cn1)OC31CCOCC1)[C@@H](O)CC1(CCC1)C2 [1(49), (3S,9S)-4-isopropyl-7,7-(propan-1,3-diyl)-3-(5-(trifluoromethyl)pyridin-2-yl)-2′,3′,5′,6,6′,7,8,9-octahydro-3H-spiro[furo[3,4-c]quinoline-1,4′-pyran]-9-ol] gave an IC50 of 37 nM.
Work on CC(C)c1nc2c(c3c1[C@@H](c1ccc(C(F)(F)F)cc1)OC31CCOCC1)[C@@H](O)CC1(CCC1)[C@H]2O [5(1), (3R,6R,9S)-4-isopropyl-7,7-(propan-1,3-diyl)-3-(4-(trifluoromethyl)phenyl)-2′,3′,5′,6,6′,7,8,9-octahydro-3H-spiro[furo[3,4-c]quinoline-1,4′-pyran]-6,9-diol] yielded an IC50 of 78 nM.
CC(C)c1nc2c(c3c1[C@@H](c1ccc(C(C)(C)C)cc1)OC31CCCC1)[C@@H](O)CC(C)(C)[C@@H]2O [4(4), (3′R,6′S,9′S)-3′-(4-tert-butylphenyl)-4′-isopropyl-7′,7′-dimethyl-6′,7′,8′,9′-tetrahydro-3′H-spiro[cyclopentane-1,1′-furo[3,4-c]quinoline]-6′,9′-diol] showed an IC50 of 207 nM.
Compound CC(C)c1nc2c(c3c1[C@@H](c1ccc(C(F)(F)F)cn1)OC31CCOCC1)[C@@H](O)CC(C)(C)[C@H]2O [5(4), (3S,6R,9S)-4-isopropyl-7,7-dimethyl-3-(5-(trifluoromethyl)pyridin-2-yl)-2′,3′,5′,6,6′,7,8,9-octahydro-3H-spiro[furo[3,4-c]quinoline-1,4′-pyran]-6,9-diol] has an IC50 of 183 nM.
With CC(C)c1nc2c(c3c1[C@@H](c1ccc(C(F)(F)F)nc1)OC31CCOCC1)[C@@H](O)CC1(CCC1)[C@H]2O [Example 5, (3R,6R,9S)-4-isopropyl-7,7-(propan-1,3-diyl)-3-(6-(trifluoromethyl)pyridin-3-yl)-2′,3′,5′,6,6′,7,8,9-octahydro-3H-spiro[furo[3,4-c]quinoline-1,4′-pyran]-6,9-diol] the IC50 was 13 nM.
Work on CC(C)c1nc2c(c3c1[C@H](c1ccc(C(F)(F)F)cc1)OC31CCCC1)[C@H](O)CC(C)(C)C2 (single isomer, unassigned) [2 (Diastereomer 1), (3′S,9′R)-4′-isopropyl-7′,7′-dimethyl-3′-(4-(trifluoromethyl)phenyl)-6′,7′,8′,9′-tetrahydro-3′H-spiro[cyclopentane-1,1′-furo[3,4-c]quinolin]-9′-ol] yielded an IC50 of 699 nM.
In the case of CC(C)c1nc2c(c3c1[C@@H](c1ccc(C(F)(F)F)cc1)OC31CCOCC1)[C@@H](O)CC1(CCC1)C2 [1(50), (3R,9S)-4-isopropyl-7,7-(propan-1,3-diyl)-3-(4-(trifluoromethyl)phenyl)-2′,3′,5′,6,6′,7,8,9-octahydro-3H-spiro[furo[3,4-c]quinoline-1,4′-pyran]-9-ol], the IC50 is reported as 7 nM.
Compound CC(C)c1nc2c(c3c1[C@@H](c1ccc(S(F)(F)(F)(F)F)cc1)OC31CCOCC1)[C@@H](O)CC1(CCC1)C2 [1(69), (3R,9S)-4-isopropyl-7,7-(propan-1,3-diyl)-3-(4-(pentafluorosulfanyl)phenyl)-2′,3′,5′,6,6′,7,8,9-octahydro-3H-spiro[furo[3,4-c]quinoline-1,4′-pyran]-9-ol] has an IC50 of 14 nM.
CC(C)c1nc2c(c3c1[C@@H](c1ccc(S(F)(F)(F)(F)F)cc1)OC31CCOCC1)[C@@H](O)CC1(CCC1)[C@H]2O [4(8), (3R,6R,9S)-4-isopropyl-7,7-(propan-1,3-diyl)-3-(4-(pentafluorosulfanyl)phenyl)-2′,3′,5′,6,6′,7,8,9-octahydro-3H-spiro[furo[3,4-c]quinoline-1,4′-pyran]-6,9-diol] gave an IC50 of 14 nM.
With CC(C)c1nc2c(c3c1[C@H](c1ccc(C(F)(F)F)c(F)c1)OC31CCOCC1)[C@@H](O)CC(C)(C)C2 [1(54), (3S,9S)-3-(3-fluoro-4-(trifluoromethyl)phenyl)-4-isopropyl-7,7-dimethyl-2′,3′,5′,6,6′,7,8,9-octahydro-3H-spiro[furo[3,4-c]quinoline-1,4′-pyran]-9-ol] the IC50 was 1690 nM.
CC1(C)C[C@H](O)c2c(nc(C3CCOCC3)c3c2C2(CCOCC2)O[C@@H]3c2ccc(C(F)(F)F)nc2)[C@@H]1O [6(2), (3R,6R,9S)-7,7-dimethyl-4-(tetrahydro-2H-pyran-4-yl)-3-(6-(trifluoromethyl)pyridin-3-yl)-2′,3′,5′,6,6′,7,8,9-octahydro-3H-spiro[furo[3,4-c]quinoline-1,4′-pyran]-6,9-diol] was tested, and the IC50 was 1540 nM.
Compound CC(C)c1nc2c(c3c1[C@@H](c1ccc(C(C)(C)C)cc1)OC31CCCC1)[C@@H](O)CC1(CCC1)C2 [1(62), (3′R,9′S)-3′-(4-tert-butylphenyl)-4′-isopropyl-7′,7′-(propan-1,3-diyl)-6′,7′,8′,9′-tetrahydro-3′H-spiro[cyclopentane-1,1′-furo[3,4-c]quinolin]-9′-ol] has an IC50 of 21 nM.
CC(C)c1nc2c(c3c1[C@@H](c1ccc(S(F)(F)(F)(F)F)cc1)OC31CCOCC1)[C@@H](O)CC(C)(C)[C@H]2O [4(7), (3R,6R,9S)-4-isopropyl-7,7-dimethyl-3-(4-(pentafluorosulfanyl)phenyl)-2′,3′,5′,6,6′,7,8,9-octahydro-3H-spiro[furo[3,4-c]quinoline-1,4′-pyran]-6,9-diol] showed an IC50 of 12 nM.
CC(C)c1nc2c(c3c1[C@@H](c1ccc(C(F)(F)F)cc1)OC31CCOCC1)[C@@H](O)CC(C)(C)[C@H]2O [4(2), (3R,6R,9S)-4-isopropyl-7,7-dimethyl-3-(4-(trifluoromethyl)phenyl)-2′,3′,5′,6,6′,7,8,9-octahydro-3H-spiro[furo[3,4-c]quinoline-1,4′-pyran]-6,9-diol] showed an IC50 of 25 nM.
CC(C)c1nc2c(c3c1[C@@H](c1ccc(C(F)(F)F)c(C#N)c1)OC31CCOCC1)[C@@H](O)CC(C)(C)C2 [1(66), 5-((3R,9S)-9-hydroxy-4-isopropyl-7,7-dimethyl-2′,3′,5′,6,6′,7,8,9-octahydro-3H-spiro[furo[3,4-c]quinoline-1,4′-pyran]-3-yl)-2-(trifluoromethyl)benzonitrile] was tested, and the IC50 was 34 nM.
With CC(C)(C)c1ccc([C@H]2OC3(CCOCC3)c3c2c(C2CCOCC2)nc2c3[C@@H](O)CC(C)(C)[C@H]2O)cc1 [4(13), (3R,6R,9S)-3-(4-tert-butylphenyl)-7,7-dimethyl-4-(tetrahydro-2H-pyran-4-yl)-2′,3′,5′,6,6′,7,8,9-octahydro-3H-spiro[furo[3,4-c]quinoline-1,4′-pyran]-6,9-diol] the IC50 was 51 nM.
Compound CC(C)c1nc2c(c3c1[C@@H](c1ccc(C(F)(F)F)cc1F)OC31CCOCC1)[C@@H](O)CC(C)(C)[C@H]2O [4(5), (3S,6R,9S)-3-(2-fluoro-4-(trifluoromethyl)phenyl)-4-isopropyl-7,7-dimethyl-2′,3′,5′,6,6′,7,8,9-octahydro-3H-spiro[furo[3,4-c]quinoline-1,4′-pyran]-6,9-diol] has an IC50 of 15 nM.
Compound CC(C)c1nc2c(c3c1[C@@H](c1ccc(C(F)(F)F)nc1)OC31CCOCC1)[C@@H](O)CC(C)(C)[C@H]2O [5(5), (3R,6R,9S)-4-isopropyl-7,7-dimethyl-3-(6-(trifluoromethyl)pyridin-3-yl)-2′,3′,5′,6,6′,7,8,9-octahydro-3H-spiro[furo[3,4-c]quinoline-1,4′-pyran]-6,9-diol] has an IC50 of 418 nM.
Compound CC(C)c1nc2c(c3c1[C@@H](c1ccc(C(F)(F)F)cn1)OC31CCC(F)(F)CC1)[C@@H](O)CC(C)(C)C2 (single isomer, unassigned) [7 (Diastereomer 1), (3′S,9′S)-4,4-difluoro-4′-isopropyl-7′,7′-dimethyl-3′-(5-(trifluoromethyl)pyridin-2-yl)-6′,7′,8′,9′-tetrahydro-3′H-spiro[cyclohexane-1,1′-furo[3,4-c]quinolin]-9′-ol] has an IC50 of 193 nM.
Work on CC(=O)O[C@H]1c2nc(C(C)C)c3c(c2[C@@H](O)CC1(C)C)C1(CCCC1)O[C@@H]3c1ccc(C(F)(F)F)nc1 [1(46), (3′R,6′R,9′S)-9′-hydroxy-4′-isopropyl-7′,7′-dimethyl-3′-(6-(trifluoromethyl)pyridin-3-yl)-6′,7′,8′,9′-tetrahydro-3′H-spiro[cyclopentane-1,1′-furo[3,4-c]quinoline]-6′-yl acetate] yielded an IC50 of 1830 nM.
CC(C)c1nc2c(c3c1[C@@H](c1ccc(C(F)(F)F)c(C#N)c1)OC31CCOCC1)[C@@H](O)CC1(CCC1)[C@H]2O [4(10), 5-((3R,6R,9S)-6,9-dihydroxy-4-isopropyl-7,7-(propan-1,3-diyl)-2′,3′,5′,6,6′,7,8,9-octahydro-3H-spiro[furo[3,4-c]quinoline-1,4′-pyran]-3-yl)-2-(trifluoromethyl)benzonitrile] showed an IC50 of 15 nM.
Work on N#Cc1cc([C@H]2OC3(CCOCC3)c3c2c(C2CCOCC2)nc2c3[C@@H](O)CC3(CCC3)[C@H]2O)ccc1C(F)(F)F [4(14), 5-((3R,6R,9S)-6,9-dihydroxy-7,7-(propan-1,3-diyl)-4-(tetrahydro-2H-pyran-4-yl)-2′,3′,5′,6,6′,7,8,9-octahydro-3H-spiro[furo[3,4-c]quinoline-1,4′-pyran]-3-yl)-2-(trifluoromethyl)benzonitrile] yielded an IC50 of 65 nM.

— patent publication US9029544B2, “Tricyclic pyridine derivatives, medicaments containing such compounds, their use and process for their preparation” (Boehringer Ingelheim International GmbH, priority 2010, dated 2015)
